We go through 17 compounds from PubChem BioAssay AID248 (DTP/NCI, 2004).

The subject of the assay is L1210 leukemia ip in BDF1 mice, survival T/C. In words: NCI In Vivo Anticancer Drug Screen. Data for tumor model L1210 Leukemia (intraperitoneal) in B6D2F1 (BDF1) mice. To be noted: endpoint: mean survival time, higher = longer survival. The gist of the method:
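Transplantable tumor model; survival measured in treated vs vehicle control mice. Value = treated/control.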

Setting [1] is: dose: 100.0 mg/kg/injection, schedule: Q01DX009 (ip), vehicle: saline with Tween-80.
The mark [2] stands for this setting: dose: 200.0 mg/kg/injection, schedule: Q01DX009 (ip), vehicle: saline with Tween-80.
[3] abbreviates: dose: 100.0 mg/kg/injection, schedule: Q01DX009 (ip), vehicle: Klucel (hydroxypropylcellulose) (HPC).
[4] abbreviates: dose: 200.0 mg/kg/injection, schedule: Q01DX009 (ip), vehicle: Klucel (hydroxypropylcellulose) (HPC).
Setting [5] is: dose: 100.0 mg/kg/injection, schedule: Q01DX001 (ip), vehicle: other.
Where [6] appears, read: dose: 200.0 mg/kg/injection, schedule: Q01DX001 (ip), vehicle: other.
[7] abbreviates: dose: 400.0 mg/kg/injection, schedule: Q01DX001 (ip), vehicle: other.

“And” between values parts separate entries of the source, which are not always exact repeats. Identical values can stand only once. Toxic doses and inconclusive results are not listed. Peptide text beside a SMILES is read from it. * marks the point of attachment. Boc = CC(C)(C)OC(=O)*; OtBu = CC(C)(C)O*; NHNH2 = NN*

As to `CCOc1ccc(Br)cc1`, the T/C was 91 % of control (dose: 100.0 mg/kg/injection, schedule: Q01DX001 (ip), vehicle: saline with Tween-80); 95 % of control and 105 % of control under setting [1]; 97 % of control and 101 % of control (dose: 100.0 mg/kg/injection, schedule: Q04DX002 (ip), vehicle: saline with Tween-80); 105 % of control (dose: 100.0 mg/kg/injection, schedule: Q04DX003 (ip), vehicle: saline with Tween-80); 87 % of control (dose: 200.0 mg/kg/injection, schedule: Q01DX001 (ip), vehicle: saline with Tween-80); 105 % of control and 92 % of control under setting [2]. Moreover, the T/C (dose: 200.0 mg/kg/injection, schedule: Q04DX002 (ip), vehicle: saline with Tween-80) was 119 % of control and 92 % of control; the T/C (dose: 200.0 mg/kg/injection, schedule: Q04DX003 (ip), vehicle: saline with Tween-80) is 94 % of control; the T/C (dose: 400.0 mg/kg/injection, schedule: Q01DX001 (ip), vehicle: saline with Tween-80) is 89 % of control; the T/C (dose: 400.0 mg/kg/injection, schedule: Q04DX002 (ip), vehicle: saline with Tween-80) is 99 % of control and 91 % of control; the T/C (dose: 400.0 mg/kg/injection, schedule: Q04DX003 (ip), vehicle: saline with Tween-80) is 101 % of control.
As for `CC(=O)Oc1ccc(N(CCCl)CCCl)cc1OC(C)=O`, the T/C (dose: 150.0 mg/kg/injection, schedule: Q01DX001 (ip), vehicle: other) was 98 % of control.
For the compound `COc1ccc(C=C2CCC2)cc1`, the T/C runs as follows: (dose: 100.0 mg/kg/injection, schedule: Q04DX003 (ip), vehicle: gum acacia) 95 % of control; (dose: 200.0 mg/kg/injection, schedule: Q04DX003 (ip), vehicle: gum acacia) 99 % of control; (dose: 400.0 mg/kg/injection, schedule: Q04DX003 (ip), vehicle: gum acacia) 99 % of control.
As for `O=C(COc1ccccc1Cl)Nc1cccnc1`, the T/C by setting is: (dose: 100.0 mg/kg/injection, schedule: Q01DX001 (ip), vehicle: Klucel (hydroxypropylcellulose) (HPC)) 113 % of control; (dose: 200.0 mg/kg/injection, schedule: Q01DX001 (ip), vehicle: Klucel (hydroxypropylcellulose) (HPC)) 103 % of control; (dose: 400.0 mg/kg/injection, schedule: Q01DX001 (ip), vehicle: Klucel (hydroxypropylcellulose) (HPC)) 103 % of control.
Take `COC(=O)c1cc(NC(=O)Nc2cccc(C(C)=O)c2)cc(C(=O)OC)c1`: the T/C runs as follows: under setting [3], 98 % of control; under setting [4], 102 % of control; (dose: 400.0 mg/kg/injection, schedule: Q01DX009 (ip), vehicle: Klucel (hydroxypropylcellulose) (HPC)) 93 % of control.
`O=C(Nc1ccc(Cl)cc1)Oc1ccccn1`: the T/C under setting [1] was 93 % of control; the T/C under setting [2] was 91 % of control; the T/C (dose: 400.0 mg/kg/injection, schedule: Q01DX009 (ip), vehicle: saline with Tween-80) was 91 % of control.
On to `Cc1ccc(N2P(N(C)C)N(c3ccc(C)cc3)P2(=O)N(C)C)cc1` (centres undefined), for which the T/C by setting is: (dose: 100.0 mg/kg/injection, schedule: Q04DX002 (ip), vehicle: Klucel (hydroxypropylcellulose) (HPC)) 111 % of control; (dose: 200.0 mg/kg/injection, schedule: Q04DX002 (ip), vehicle: Klucel (hydroxypropylcellulose) (HPC)) 101 % of control; (dose: 400.0 mg/kg/injection, schedule: Q04DX002 (ip), vehicle: Klucel (hydroxypropylcellulose) (HPC)) 101 % of control.
Regarding `COC(=O)c1ccc(C(=O)O)[n+]([O-])c1`, the T/C under setting [3] is 93 % of control; the T/C (dose: 100.0 mg/kg/injection, schedule: Q04DX003 (ip), vehicle: Klucel (hydroxypropylcellulose) (HPC)) was 97 % of control; the T/C under setting [4] was 88 % of control; the T/C (dose: 200.0 mg/kg/injection, schedule: Q04DX003 (ip), vehicle: Klucel (hydroxypropylcellulose) (HPC)) was 103 % of control; the T/C (dose: 400.0 mg/kg/injection, schedule: Q04DX003 (ip), vehicle: Klucel (hydroxypropylcellulose) (HPC)) was 97 % of control.
For the compound `CCCCN(C(=O)C(F)(F)F)C(C)(C)C(SSSC(c1ccc(Cl)cc1)C(C)(C)N(CCCC)C(=O)C(F)(F)F)c1ccc(Cl)cc1` (centres undefined), the T/C by setting is: (dose: 100.0 mg/kg/injection, schedule: Q01DX009 (ip), vehicle: saline sonified) 103 % of control; (dose: 100.0 mg/kg/injection, schedule: Q04DX003 (ip), vehicle: saline sonified) 96 % of control; (dose: 200.0 mg/kg/injection, schedule: Q01DX009 (ip), vehicle: saline sonified) 100 % of control; (dose: 200.0 mg/kg/injection, schedule: Q04DX003 (ip), vehicle: saline sonified) 94 % of control; (dose: 400.0 mg/kg/injection, schedule: Q01DX009 (ip), vehicle: saline sonified) 96 % of control; (dose: 400.0 mg/kg/injection, schedule: Q04DX003 (ip), vehicle: saline sonified) 97 % of control.
With `CCC(C)C(NC(=O)CNC(=O)OC(C)(C)C)C(=O)NC(C(=O)NC(CCC(=O)OC(C)(C)C)C(=O)NN)C(C)C` (centres undefined) (Boc-GIVE(OtBu)-NHNH2; configuration not given here), the T/C runs as follows: (dose: 75.0 mg/kg/injection, schedule: Q01DX001 (ip), vehicle: saline sonified) 100 % of control; (dose: 150.0 mg/kg/injection, schedule: Q01DX001 (ip), vehicle: saline sonified) 92 % of control; (dose: 300.0 mg/kg/injection, schedule: Q01DX001 (ip), vehicle: saline sonified) 106 % of control.
As to `CCCCOCCOCCOc1ccc(C(=O)OC)cc1`, the T/C (dose: 100.0 mg/kg/injection, schedule: Q01DX001 (ip), vehicle: saline sonified) was 103 % of control; the T/C (dose: 200.0 mg/kg/injection, schedule: Q01DX001 (ip), vehicle: saline sonified) was 96 % of control; the T/C (dose: 400.0 mg/kg/injection, schedule: Q01DX001 (ip), vehicle: saline sonified) is 100 % of control.
For the compound `O=C(CNC(=O)Nc1ccc(C2=NCCN2)cc1)Nc1ccc(C2=NCCN2)cc1`, the T/C reads like this: (dose: 4.5 mg/kg/injection, schedule: Q01DX Z (ip), vehicle: carboxymethylcellulose (CMC)) 117 % of control; (dose: 9.0 mg/kg/injection, schedule: Q01DX Z (ip), vehicle: carboxymethylcellulose (CMC)) 159 % of control; (dose: 18.0 mg/kg/injection, schedule: Q01DX Z (ip), vehicle: carboxymethylcellulose (CMC)) 247 % of control; (dose: 36.0 mg/kg/injection, schedule: Q01DX Z (ip), vehicle: carboxymethylcellulose (CMC)) 192 % of control; (dose: 50.0 mg/kg/injection, schedule: Q01DX Z (oral), vehicle: water) 98 % of control; (dose: 100.0 mg/kg/injection, schedule: Q01DX Z (oral), vehicle: water) 115 % of control. The T/C runs as follows: (dose: 200.0 mg/kg/injection, schedule: Q01DX Z (oral), vehicle: water) 119 % of control; (dose: 400.0 mg/kg/injection, schedule: Q01DX Z (oral), vehicle: water) 150 % of control.
As to `CCCCCCCCCCCCC(C(=O)O)C1C=CCC1` (centres undefined), the T/C is 95 % of control under setting [5], 90 % of control under setting [6] and 101 % of control under setting [7].
The corresponding values for `CC(=O)n1c(O)c(N=Nc2ccccc2[N+](=O)[O-])c2ccccc21` are 92 % of control, 93 % of control and 98 % of control.
Take `CC1(C)N=C(N)N=C(N)N1c1cccc([N+](=O)[O-])c1`: the T/C runs as follows: (dose: 25.0 mg/kg/injection, schedule: Q04DX002 (ip), vehicle: saline) 93 % of control; (dose: 25.0 mg/kg/injection, schedule: Q04DX003 (ip), vehicle: saline) 106 % of control; (dose: 50.0 mg/kg/injection, schedule: Q04DX002 (ip), vehicle: saline) 96 % of control; (dose: 50.0 mg/kg/injection, schedule: Q04DX003 (ip), vehicle: saline) 105 % of control; (dose: 100.0 mg/kg/injection, schedule: Q04DX002 (ip), vehicle: saline) 91 % of control; (dose: 100.0 mg/kg/injection, schedule: Q04DX003 (ip), vehicle: saline) 98 % of control and 111 % of control.
As for `CN(C)CCC(O)C(c1ccccc1)c1ccccc1` (centres undefined), the T/C was 100 % of control (dose: 75.0 mg/kg/injection, schedule: Q01DX001 (ip), vehicle: saline) and 102 % of control (dose: 150.0 mg/kg/injection, schedule: Q01DX001 (ip), vehicle: saline).
As for `CC1=C(C(=O)O)CC(S(=O)(=O)O)C1(C)C` (centres undefined), the T/C (dose: 75.0 mg/kg/injection, schedule: Q01DX001 (ip), vehicle: acetone) was 96 % of control; the T/C (dose: 150.0 mg/kg/injection, schedule: Q01DX001 (ip), vehicle: acetone) is 96 % of control; the T/C (dose: 300.0 mg/kg/injection, schedule: Q01DX001 (ip), vehicle: acetone) was 92 % of control.
